Test results: patent US20020160968A1, “Inhibitors of cellular niacinamide mononucleotide formation and their use in cancer therapy” (Klinge Pharma GmbH, priority 1999, published 2002)

What was measured:
[1] = system: HepG2 cells; test: Cell growth under high-density conditions (SRB assay), delayed cell death (DCD); format: cell-based, human; conditions: Homo sapiens, high density HepG2 cultures
[2] = target: T1, niacinamide phosphoribosyltransferase (NAPRT, EC 2.4.2.12) (Homo sapiens, UniProt P43490); test: Niacinamide phosphoribosyltransferase (NAPRT) assay, protamine-treated cytoplasmic fraction of K-562 cells; format: biochemical; conditions: for NAM: niacinamide mononucleotide formed, controls 79.1 and 71.8; for NA: niacinamide remaining, controls 389.7 and 397.0; for NAM [%] / NA [%]: portion of total radioactivity
T1 construct: protamine-treated cytoplasmic fraction of K-562 cells as the enzyme source; endogenous in cells; host or cells: K-562 (ATCC CCL 243), freeze-thaw lysate, 23,000 x g supernatant treated with protamine sulfate
Protocol: The effect of the compounds on the enzyme niacinamide phosphoribosyltransferase (NAPRT, EC 2.4.2.12) was investigated using for example protamine-treated cytoplasmic fraction of K-562 cells as the enzyme source according to the NAPRT assay described in the experimental part below. The investigated compounds were used in concentrations of 10 μM, except for K22387 and K22133 where the concentration was 1 μM.
The assay is based on the amount of radioactive incorporation from ^14C-labelled niacinamide into niacinamide mononucleotide (NAM). NAM is subsequently separated from niacinamide (NA) by thin-layer chromatography and its quantity is determined by autoradiography.
Niacinamide Phosphoribosyltransferase (NAPRT) Assay
The human cell line K-562 (chronic myelogenous leukaemia) is obtained from the American Type Culture Collection (ATCC CCL 243), Rockville, Md., USA. The K-562 cells are cultured in RPMI (Sigma, Deisenhofen, Germany, Product No.: R6504) containing 10% foetal calf serum (PAN Systems GmbH, Aidenbach, Germany), 2.2 g/l NaHCO3 (Merck, Darmstadt, Germany), 50,000 IU/l penicillin and 50 mg/l streptomycin (Sigma).
The K-562 cells are grown in RPMI supplemented with 10% FCS at 37° C. and 100% humidity in a 5% CO2 atmosphere up to a density of 2×10^6 cells per ml. Under these conditions, the cells grow logarithmically with a generation time of 24 hours. The cells are harvested by aspiration and centrifugation (250×g, 10 min, RT). Thereafter, the cells are washed at least 3 times by repeated centrifugation (250×g, 10 min, RT) and resuspension in CMF-PBS. After counting the cell suspension in a haematocytometer, the cells are spun into a tight pellet (390×g, […], RT) and the supernatant is carefully drawn off with a Pasteur pipette. The cells are then vortexed into suspension in sufficient lysis buffer to give a final concentration of 3×10^7 cells per ml. The suspension is frozen at −80° C. for at least one day and thawed slowly at room temperature to break up the cells. The breakage is usually greater than 95%, as determined by trypan blue exclusion. Following centrifugation at 23,000×g for 90 min at 0° C., the clarified supernatant is recovered on ice and 70 μl of 1% protamine sulfate is added per ml of supernatant. After 15 min on ice, the cloudy suspension is centrifuged a further 30 min at 23,000×g and 0° C. The final supernatant is stored in small aliquots at […] This supernatant contains about 950 to 1440 μg protein per ml. 120 to 140 μg protein per sample is used in the NAPRT assay (total assay volume: 0.5 ml).
The niacinamide phosphoribosyltransferase activity is determined in a reaction solution of 0.5 ml consisting of 5 mM MgCl2, 2 mM ATP, 0.5 mM PRPP, and [^14C]niacinamide (10^−5 M to 10^−7 M) in 50 mM Tris buffer pH 8.8 (final concentrations in the assay). The reaction is started by adding 100 to 120 μl cell extract. After incubation for 1 hour at 37° C., the enzyme reaction is stopped by adding cold niacinamide (50 μl of a 100 mM niacinamide solution per 0.5 ml reaction mixture) and by heating on a heating block (2 min, 105° C.). The precipitate is removed by centrifugation (2,500×g, 10 min, 4° C.) and the supernatant is collected into a […] polypropylene vial with screw cap and stored at −20° C. until further analysis. A 10 μl aliquot is taken from the supernatant to determine the total amount of radioactivity.
The ^14C-labelled components of the reaction mixture are separated and identified using thin-layer chromatography (TLC). 5 to 7.5 μl of each sample is transferred to a cellulose TLC foil using an automated sample applicator. The cellulose foil is developed using 1 M NH4 acetate:ethanol (3:7) as solvent. The chromatogram is run with added non-radioactive standards of NAD, NADP, NAM and niacinamide, and the spots were identified by UV absorption (RF values see Table 7). For autoradiography, the chromatogram is exposed to an imaging plate BAS-IIIs in a hypercassette for at least two days. […]

[3] = system: Hep G2 cells; test: Nicotinamide Reversibility Assay / cell growth inhibition of Hep G2 cells (SRB, six days); format: cell-based, human; conditions: for IC50: Homo sapiens, HepG2, 144 h, six days of compound incubation, SRB, read-out: Cell growth inhibition IC50-values [μM] Hep G2
Protocol: Nicotinamide Reversibility Assay
Hep G2 cells derived from a human liver carcinoma were plated at a density of 20,000 cells/ml in 12-well plastic dishes. Cultivation occurred in Richters IMEM-ZO nutrient medium with 5% fetal calf serum (FCS) in a tissue culture incubator with a gas mixture of 5% CO2 and 95% air at a temperature of 37° C. One day after plating, the culture medium was aspirated from the cells and replaced by fresh medium which contained the respective concentrations of the test compounds and where applicable of the nicotinamide. For the individual concentrations and the controls without test compounds, three-fold batches were done for each. Three days after the beginning of treatment, the medium was again renewed with the test compounds and where applicable the nicotinamide. After six days of compound incubation, the test was ended and the protein amount in the individual wells was determined with the sulforhodamin-B-method (according. to P. Skehan et al.: New Colorimetric Cytotoxicity Assay for Anticancer-Drug Screening. J. Natl. Cancer Inst. 82: 1107-1112, 1990). The IC50-values were taken from the dose-response curves and given as a comparative measurement for the activity of the test compounds.

[4] = minimum concentration which, despite initial growth, induced cell death below the number of initially seeded cells, Table 2
[5] = compound 10 μM, controls 16.88 and 15.32
[6] = compound 10 μM, controls 83.12 and 84.68

T1 sequence (P43490 whole entry): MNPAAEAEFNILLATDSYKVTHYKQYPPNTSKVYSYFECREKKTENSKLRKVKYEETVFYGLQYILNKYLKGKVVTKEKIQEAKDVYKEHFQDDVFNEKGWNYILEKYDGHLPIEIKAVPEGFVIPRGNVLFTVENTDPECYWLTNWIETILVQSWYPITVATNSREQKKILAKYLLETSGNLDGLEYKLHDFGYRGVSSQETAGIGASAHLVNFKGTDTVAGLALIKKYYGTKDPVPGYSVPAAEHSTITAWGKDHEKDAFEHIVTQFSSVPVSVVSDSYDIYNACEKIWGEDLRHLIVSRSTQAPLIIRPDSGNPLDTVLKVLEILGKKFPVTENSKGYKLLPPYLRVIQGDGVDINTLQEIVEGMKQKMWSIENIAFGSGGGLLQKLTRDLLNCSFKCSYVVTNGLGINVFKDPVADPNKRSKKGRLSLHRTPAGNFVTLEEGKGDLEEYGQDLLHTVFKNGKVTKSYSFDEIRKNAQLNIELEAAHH

Cn1c(CCNC(=O)/C=C/c2cccnc2)ccc1CN1CCN(C(c2ccccc2)c2ccccc2)CC1 [Compound K22350, N-{2-[5-(4-benzhydryl-piperazine-1-yl-methyl)-1-methyl-1H-pyrrole-2-yl]-ethyl}-3-pyridine-3-yl-acrylamide]
minimal effective concentration ([1]; Table 5): 1 µM | minimal effective concentration [1, 4]: 1 µM | NAM ([2]; compound 10 μM): 0.0 pmol/h | NA ([2]; compound 10 μM): 468.8 pmol/h | NAM [%] [2, 5]: 0.00% | NA [%] [2, 6]: 100.00% | IC50 ([3]; Hep G2): 0.7 µM

O=C(NCCCCC1CCN(S(=O)(=O)c2ccc3ccccc3c2)CC1)Nc1cccnc1 [Compound K22365, 1-{4-[1-(naphthalene-2-sulfonyl)-piperidine-4-yl)-butyl}-3-pyridine-3-yl-urea]
minimal effective concentration ([1]; Table 5): 3 µM | minimal effective concentration [1, 4]: 3 µM | NAM ([2]; compound 10 μM): 0.0 pmol/h | NA ([2]; compound 10 μM): 468.8 pmol/h | NAM [%] [2, 5]: 0.00% | NA [%] [2, 6]: 100.00% | IC50 ([3]; Hep G2): 0.6 µM

O=C(NCCCCC1CCN(C(=O)N2c3ccccc3CCc3ccccc32)CC1)Nc1cccnc1 [Compound K22387, 1-{4-[1-(1,11-dihydro-dibenzene[b,f]azepine-5-carbonyl)-piperidine-4-yl]-butyl}-3-pyridine-3-yl-urea]
minimal effective concentration ([1]; Table 5): 0.01 µM | minimal effective concentration [1, 4]: 0.01 µM | NAM ([2]; compound 1 μM): 0.0 pmol/h | NA ([2]; compound 1 μM): 468.8 pmol/h | NA [%] ([2]; compound 1 μM): 100.00% | NAM [%] ([2]; compound 1 μM): 0.00% | Influence of the addition of nicotinamide on the action on cell growth (FIGS. 20 to 27) ([3]; Hep G2): can be antagonized | Reversal by Niacinamide ([3]; Hep G2 cell growth inhibition with added nicotinamide): yes | IC50 ([3]; Hep G2): 0.002 µM

NC(Cc1ccc(O)c(N=Nc2ccccc2C(=O)N2CCC(CCCCNC(=O)/C=C/c3cccnc3)CC2)c1)C(=O)O (stereo not drawn) [Compound K22408, 2-amino-3-[4-hydroxy-3-(2-{4-[4-(3-pyridine-3-yl-acryloyl-amino)-butyl]-piperidine-1-carbonyl}-phenylazo)-phenyl]-propanoic acid trihydrate]
minimal effective concentration ([1]; Table 5): 1 µM | minimal effective concentration [1, 4]: 1 µM | NAM ([2]; compound 10 μM): 0.0 pmol/h | NA ([2]; compound 10 μM): 468.8 pmol/h | NAM [%] [2, 5]: 0.00% | NA [%] [2, 6]: 100.00% | IC50 ([3]; Hep G2): 0.2 µM
